Consider 13 compounds from ChEMBL document CHEMBL5584225, “Discovery of an efficacious KDM5B PROTAC degrader GT-653 up-regulating IFN response genes in prostate cancer” (Eur J Med Chem, 2024).

The target in data set [1] is T1, Protein cereblon/Lysine-specific demethylase 5B (Homo sapiens) (UniProt Q96SW2+Q9UGL1). The data set can be described thus: PROTAC activity at CRBN/KDM5B in human 22Rv1 cells assessed as induction of KDM5B degradation at 10 uM incubated for 12 hrs by Western blot analysis relative to control. The class given is cell-based. On the technique in general: Immunoblotting shows a protein as a band on a membrane.

Data set [2] addresses Lysine-specific demethylase 5B (Homo sapiens) (UniProt Q9UGL1). The data set can be described thus: Inhibition of KDM5B (unknown origin) assessed as increase in H3K4me3 level.
Data set [3] shares this target. The experiment in a line: Inhibition of KDM5B in human 22Rv1 cells assessed as upregulation of H3K4me3 level at 20 uM incubated for 24 hrs by Western blot analysis. The class given is cell-based.
The target is the same in data set [4]. The data set can be described thus: Inhibition of KDM5B in human 22Rv1 cells assessed as upregulation of IRF3 mRNA expression at 20 uM incubated for 24 hrs by RT-qPCR analysis. The class given is cell-based. (In qPCR the cycle at which signal appears reflects the starting amount.)
For data set [5], the target named is T1, Protein cereblon/Lysine-specific demethylase 5B (Homo sapiens). The experiment in a line: PROTAC activity at CRBN/KDM5B in human 22Rv1 cells assessed as reduction in KDM5B level by RT-qPCR analysis. The format is cell-based.
The target in data set [6] is Lysine-specific demethylase 5B (Homo sapiens) (UniProt Q9UGL1). The data set can be described thus: Inhibition of KDM5B in human 22Rv1 cells assessed as upregulation of IFI27L2 mRNA expression at 20 uM incubated for 24 hrs by RT-qPCR analysis. The format is cell-based.
The target of data set [7] is T1, Protein cereblon/Lysine-specific demethylase 5B (Homo sapiens). The data set can be described thus: PROTAC activity at CRBN/KDM5B in human 22Rv1 cells assessed as increase in H3K4me3 level at 0 to 20 uM incubated for 24 hrs by Western blot analysis. The class given is cell-based. As to conditions: dose 0-20 µM.
Data set [8] relates to CWR22R. The data set can be described thus: Upregulation of IFI27L2 mRNA expression in KDM5B-deficient human 22Rv1 cells harboring reintroduced KDM5B L685W at 20 uM incubated for 24 hrs by RT-qPCR analysis. The format is functional, cell-based.
Data set [9] deals with Protein cereblon/Lysine-specific demethylase 5A (Homo sapiens) (UniProt P29375+Q96SW2). The data set can be described thus: Induction of KDM5A-CRBN (unknown origin) protein protein interaction assessed as ternary complex formation. The format is protein assay.
Data set [10] concerns the target T1, Protein cereblon/Lysine-specific demethylase 5B (Homo sapiens). The data set can be described thus: PROTAC activity at CRBN/KDM5B in human 22Rv1 cells assessed as induction of KDM5B degradation at 5 uM in presence of CPI-455 measured after 24 hrs by Western blot analysis. The format is cell-based.
For data set [11], the target named is Protein cereblon/Lysine-specific demethylase 5C (Homo sapiens) (UniProt P41229+Q96SW2). The data set can be described thus: Induction of KDM5C-CRBN (unknown origin) protein protein interaction assessed as ternary complex formation. The class given is protein assay.
Data set [12] concerns the target Lysine-specific demethylase 5B (Homo sapiens) (UniProt Q9UGL1). The experiment in a line: Inhibition of KDM5B non-catalytic activity in human 22Rv1 cells assessed as inhibition of KDM5B binding to SETDB1 by measuring reduction in H3K9me3 level at 20 uM incubated for 24 hrs by Co-IP analysis. The class given is cell-based.
The target in data set [13] is T1, Protein cereblon/Lysine-specific demethylase 5B (Homo sapiens). The data set can be described thus: PROTAC activity at CRBN/KDM5B in human 22Rv1 cells assessed as induction of KDM5B degradation at 5 uM in presence of MG-132 measured after 24 hrs by Western blot analysis. The class given is cell-based.
Data set [14] shares this target. The experiment in a line: Induction of KDM5B-CRBN protein protein interaction in human 22Rv1 cells at 20 uM incubated for 12 hrs in presence of MG-132 by Western blot analysis. The format is cell-based.
Data set [15] concerns the target Lysine-specific demethylase 5B (Homo sapiens) (UniProt Q9UGL1). The data set can be described thus: Inhibition of KDM5B in human 22Rv1 cells assessed as upregulation of IFI35 mRNA expression at 20 uM incubated for 24 hrs by RT-qPCR analysis. The format is cell-based.
In data set [16] the target is T1, Protein cereblon/Lysine-specific demethylase 5B (Homo sapiens). The data set can be described thus: PROTAC activity at CRBN/KDM5B in human 22Rv1 cells assessed as increase in H3K4me3 level by […] analysis. The format is cell-based.
The target is the same in data set [17]. The data set can be described thus: PROTAC activity at CRBN/KDM5B in human 22Rv1 cells assessed as induction of KDM5B degradation at 10 uM in presence of cycloheximide measured after 2 to 12 hrs by Western blot analysis. As to conditions: time 2-12 hrs. The format is cell-based.
Data set [18] relates to CWR22R. The experiment in a line: Upregulation of HHLA3 mRNA expression in KDM5B-deficient human 22Rv1 cells harboring reintroduced KDM5B L685W at 20 uM incubated for 24 hrs by RT-qPCR analysis. The class given is functional, cell-based.
Data set [19] has as its system CWR22R. The experiment in a line: Upregulation of IRF3 mRNA expression in KDM5B-deficient human 22Rv1 cells harboring reintroduced KDM5B L685W at 20 uM incubated for 24 hrs by RT-qPCR analysis. The class given is functional, cell-based.
Data set [20] has as its system CWR22R. The data set can be described thus: Cytotoxicity against human 22Rv1 cells assessed as reduction in cell proliferation at 0 to 20 uM measured after 24 to 48 hrs by MTS assay. The format is toxicity, cell-based. As to conditions: dose lower 0 µM, time lower 24 hrs, dose upper 20 µM, time upper 48 hrs.
In data set [21] the target is T1, Protein cereblon/Lysine-specific demethylase 5B (Homo sapiens). The data set can be described thus: PROTAC activity at CRBN/KDM5B in human 22Rv1 cells assessed as induction of KDM5B degradation at 5 uM in presence of thalidomide measured after 24 hrs by Western blot analysis. The format is cell-based.
Data set [22] deals with CWR22R. The experiment in a line: Effect on KDM5B transcription in human 22Rv1 cells at 0 to 20 uM measured after 24 hrs by RT-qPCR analysis. The class given is functional, cell-based. As to conditions: dose 0-20 µM.
The target in data set [23] is Lysine-specific demethylase 5B (Homo sapiens) (UniProt Q9UGL1). The data set can be described thus: Inhibition of KDM5B in human 22Rv1 cells assessed as upregulation of HHLA3 mRNA expression at 20 uM incubated for 24 hrs by RT-qPCR analysis. The class given is cell-based.
In data set [24] the target is T1, Protein cereblon/Lysine-specific demethylase 5B (Homo sapiens). The experiment in a line: PROTAC activity at CRBN/KDM5B in human 22Rv1 cells assessed as reduction in KDM5B level at 0 to 20 uM incubated for 24 hrs by Western blot analysis. The format is cell-based. As to conditions: dose 0-20 µM.
For data set [25], the system named is Protein cereblon/Lysine-specific demethylase 5B (Homo sapiens), Q96SW2+Q9UGL1 [L685W]. The data set can be described thus: PROTAC activity at CRBN/KDM5B L685W mutant in KDM5B-deficient human 22Rv1 cells harboring reintroduced KDM5B L685W assessed as induction of protein degradation at 20 uM incubated for 24 hrs by Western blot analysis. The format is cell-based.

The subject of data set [26] is CWR22R. The data set can be described thus: Downregulation of KDM5B-induced H3K9me3 level in KDM5B-deficient human 22Rv1 cells harboring reintroduced KDM5B L685W at 20 uM incubated for 24 hrs by Western blot analysis. The format is functional, cell-based.
Data set [27] deals with CWR22R. The data set can be described thus: Upregulation of IFI35 mRNA expression in KDM5B-deficient human 22Rv1 cells harboring reintroduced KDM5B L685W at 20 uM incubated for 24 hrs by RT-qPCR analysis. The format is functional, cell-based.
Data set [28] deals with Lysine-specific demethylase 5B (Homo sapiens) (UniProt Q9UGL1). The data set can be described thus: Induction of FLAG-tagged KDM5B degradation in HEK293T cells overexpressing KDM5B assessed as increase in ubiquitinated FLAG-KDM5B level by immunoprecipitation analysis. The class given is cell-based.

The source made the active and inactive calls. No cut-off for these calls is given here.

Sequence of Lysine-specific demethylase 5B (Homo sapiens) (Q9UGL1 whole entry): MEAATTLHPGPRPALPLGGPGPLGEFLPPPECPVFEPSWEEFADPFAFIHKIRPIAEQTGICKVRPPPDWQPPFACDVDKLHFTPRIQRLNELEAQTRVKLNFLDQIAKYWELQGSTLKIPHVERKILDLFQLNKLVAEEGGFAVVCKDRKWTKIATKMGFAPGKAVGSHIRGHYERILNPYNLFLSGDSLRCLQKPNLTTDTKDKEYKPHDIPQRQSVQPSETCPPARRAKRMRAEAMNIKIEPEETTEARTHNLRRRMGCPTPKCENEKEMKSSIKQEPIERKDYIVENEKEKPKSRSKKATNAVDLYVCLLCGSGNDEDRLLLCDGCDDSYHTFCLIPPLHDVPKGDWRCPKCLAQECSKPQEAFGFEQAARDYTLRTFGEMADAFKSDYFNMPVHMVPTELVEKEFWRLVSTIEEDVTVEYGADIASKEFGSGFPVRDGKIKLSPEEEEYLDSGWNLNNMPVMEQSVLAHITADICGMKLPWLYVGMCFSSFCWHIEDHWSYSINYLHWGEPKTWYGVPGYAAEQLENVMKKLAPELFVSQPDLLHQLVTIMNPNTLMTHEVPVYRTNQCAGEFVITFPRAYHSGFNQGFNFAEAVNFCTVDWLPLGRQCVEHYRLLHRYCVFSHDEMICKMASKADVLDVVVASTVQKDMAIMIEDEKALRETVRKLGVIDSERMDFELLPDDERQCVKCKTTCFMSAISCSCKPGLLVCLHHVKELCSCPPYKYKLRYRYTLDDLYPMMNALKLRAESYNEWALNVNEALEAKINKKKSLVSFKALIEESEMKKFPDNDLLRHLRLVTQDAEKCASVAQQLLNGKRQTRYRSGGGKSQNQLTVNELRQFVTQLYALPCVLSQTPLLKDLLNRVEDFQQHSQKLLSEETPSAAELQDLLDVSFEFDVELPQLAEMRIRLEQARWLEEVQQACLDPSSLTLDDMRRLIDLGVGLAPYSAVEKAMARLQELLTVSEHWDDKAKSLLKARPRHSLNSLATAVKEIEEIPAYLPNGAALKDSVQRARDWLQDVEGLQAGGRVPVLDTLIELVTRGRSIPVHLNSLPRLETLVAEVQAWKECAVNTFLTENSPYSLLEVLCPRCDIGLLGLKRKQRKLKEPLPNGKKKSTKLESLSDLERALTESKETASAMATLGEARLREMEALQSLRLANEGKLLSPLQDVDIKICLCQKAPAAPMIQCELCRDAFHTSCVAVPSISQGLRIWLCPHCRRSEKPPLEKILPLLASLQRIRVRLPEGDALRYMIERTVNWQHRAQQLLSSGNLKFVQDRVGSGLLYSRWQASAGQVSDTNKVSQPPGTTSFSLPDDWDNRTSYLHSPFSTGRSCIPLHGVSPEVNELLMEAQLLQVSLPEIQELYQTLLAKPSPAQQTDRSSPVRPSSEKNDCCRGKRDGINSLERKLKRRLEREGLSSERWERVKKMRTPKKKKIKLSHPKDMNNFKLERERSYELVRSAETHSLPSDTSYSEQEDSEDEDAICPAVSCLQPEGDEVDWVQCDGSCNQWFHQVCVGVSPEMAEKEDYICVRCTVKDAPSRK
T1 sequence (Q96SW2 whole entry, looked up): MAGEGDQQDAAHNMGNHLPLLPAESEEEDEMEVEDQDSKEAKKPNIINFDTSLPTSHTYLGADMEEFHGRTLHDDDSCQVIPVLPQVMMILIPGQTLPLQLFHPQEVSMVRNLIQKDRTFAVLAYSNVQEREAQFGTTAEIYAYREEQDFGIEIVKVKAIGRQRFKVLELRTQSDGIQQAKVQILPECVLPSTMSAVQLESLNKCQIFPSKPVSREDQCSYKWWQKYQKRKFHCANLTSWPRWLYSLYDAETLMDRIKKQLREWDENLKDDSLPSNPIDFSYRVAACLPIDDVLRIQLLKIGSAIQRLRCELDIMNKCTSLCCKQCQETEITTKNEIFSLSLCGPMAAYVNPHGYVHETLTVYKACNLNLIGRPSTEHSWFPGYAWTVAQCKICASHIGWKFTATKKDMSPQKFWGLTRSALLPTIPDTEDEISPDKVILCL
T1 sequence (Q9UGL1 whole entry, looked up): as the sequence (Q9UGL1 whole entry) above
Sequence of Protein cereblon/Lysine-specific demethylase 5C (Homo sapiens) (P41229 whole entry, looked up): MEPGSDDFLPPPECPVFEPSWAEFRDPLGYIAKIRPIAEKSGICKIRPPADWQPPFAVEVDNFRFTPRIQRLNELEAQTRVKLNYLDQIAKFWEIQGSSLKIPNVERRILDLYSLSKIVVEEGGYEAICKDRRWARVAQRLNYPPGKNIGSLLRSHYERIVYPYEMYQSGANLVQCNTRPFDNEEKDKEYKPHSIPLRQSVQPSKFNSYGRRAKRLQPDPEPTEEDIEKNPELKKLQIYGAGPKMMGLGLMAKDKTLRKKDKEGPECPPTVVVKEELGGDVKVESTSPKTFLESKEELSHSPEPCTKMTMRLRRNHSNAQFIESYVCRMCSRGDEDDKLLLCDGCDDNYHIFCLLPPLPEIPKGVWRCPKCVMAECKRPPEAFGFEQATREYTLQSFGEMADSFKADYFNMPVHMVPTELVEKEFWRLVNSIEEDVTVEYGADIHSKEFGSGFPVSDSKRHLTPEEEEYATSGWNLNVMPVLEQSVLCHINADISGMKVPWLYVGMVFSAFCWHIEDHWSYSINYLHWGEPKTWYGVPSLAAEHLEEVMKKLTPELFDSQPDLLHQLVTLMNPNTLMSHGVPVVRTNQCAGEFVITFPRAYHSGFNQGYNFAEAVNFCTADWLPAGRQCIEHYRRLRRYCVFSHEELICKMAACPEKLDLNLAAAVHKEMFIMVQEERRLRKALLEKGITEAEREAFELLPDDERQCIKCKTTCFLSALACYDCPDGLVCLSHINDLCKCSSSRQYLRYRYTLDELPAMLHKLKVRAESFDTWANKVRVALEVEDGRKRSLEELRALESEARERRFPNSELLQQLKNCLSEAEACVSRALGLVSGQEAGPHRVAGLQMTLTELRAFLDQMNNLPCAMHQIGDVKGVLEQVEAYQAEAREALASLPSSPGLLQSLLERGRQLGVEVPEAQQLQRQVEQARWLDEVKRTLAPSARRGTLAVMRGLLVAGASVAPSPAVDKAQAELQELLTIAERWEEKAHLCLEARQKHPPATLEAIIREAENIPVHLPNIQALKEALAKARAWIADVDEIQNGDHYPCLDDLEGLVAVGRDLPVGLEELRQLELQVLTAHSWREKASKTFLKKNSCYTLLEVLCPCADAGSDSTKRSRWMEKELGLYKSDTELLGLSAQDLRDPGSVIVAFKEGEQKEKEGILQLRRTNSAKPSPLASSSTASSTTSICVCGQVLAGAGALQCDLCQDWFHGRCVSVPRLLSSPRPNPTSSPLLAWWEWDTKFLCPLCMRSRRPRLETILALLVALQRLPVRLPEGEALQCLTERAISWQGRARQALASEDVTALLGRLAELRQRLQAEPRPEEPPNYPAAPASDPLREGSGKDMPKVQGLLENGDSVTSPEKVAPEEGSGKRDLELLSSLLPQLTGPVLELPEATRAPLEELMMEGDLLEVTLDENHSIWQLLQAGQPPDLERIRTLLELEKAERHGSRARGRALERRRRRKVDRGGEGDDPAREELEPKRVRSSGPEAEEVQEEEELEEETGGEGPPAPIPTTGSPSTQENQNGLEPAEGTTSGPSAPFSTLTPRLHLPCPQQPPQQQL
Sequence of Protein cereblon/Lysine-specific demethylase 5C (Homo sapiens) (Q96SW2 whole entry, looked up): as the sequence (Q96SW2 whole entry, looked up) above

For the compound `N#Cc1cnn2c(=O)cc(-c3ccc(OCCNC(=O)CCOCCNc4cccc5c4C(=O)N(C4CCC(=O)NC4=O)C5=O)cc3)[nH]c12` (centres undefined), the Activity in data set [1] came to 5.27%.

As to `N#Cc1cnn2c(=O)cc(-c3ccc(OCCNC(=O)CCOCCOCCOCCNc4cccc5c4C(=O)N(C4CCC(=O)NC4=O)C5=O)cc3)[nH]c12` (centres undefined), in data set [1], the Activity was 0%.

`CC(C)(C)OC(=O)COc1ccc(-c2cc(=O)n3ncc(C#N)c3[nH]2)cc1`: the inhibition result in data set [2] is “Active”.

In the case of `N#Cc1cnn2c(=O)cc(-c3ccc(OCCNC(=O)CCCNc4cccc5c4C(=O)N(C4CCC(=O)NC4=O)C5=O)cc3)[nH]c12` (centres undefined), the Activity in [1] was 0%.

As to `N#Cc1cnn2c(=O)cc(-c3ccc(OCCNC(=O)CCOCCOCCOCCOCCNc4cccc5c4C(=O)N(C4CCC(=O)NC4=O)C5=O)cc3)[nH]c12` (centres undefined), in data set [1], the Activity was determined as 0%.

Consider `N#Cc1cnn2c(=O)cc(-c3ccc(OCC(=O)NCCOCCNC(=O)CNc4cccc5c4C(=O)N(C4CCC(=O)NC4=O)C5=O)cc3)[nH]c12` (centres undefined), for which the Activity in data set [1] stood at 0%.

For `CC(C)c1c(-c2ccccc2)[nH]c2c(C#N)cnn2c1=O`, the inhibition result in [3] is “Active”.

As to `CC(C)(C)OC(=O)NCCOc1ccc(-c2cc(=O)n3ncc(C#N)c3[nH]2)cc1`, the inhibition entry in data set [2] is “Active”.

Regarding `N#Cc1cnn2c(=O)cc(-c3ccc(OCCNC(=O)CCCCCNc4cccc5c4C(=O)N(C4CCC(=O)NC4=O)C5=O)cc3)[nH]c12` (centres undefined), the Activity in data set [1] was 10.8%.

In the case of `N#Cc1cnn2c(=O)cc(-c3ccc(OCC(=O)NCCOCCOc4cccc5c4C(=O)N(C4CCC(=O)NC4=O)C5=O)cc3)[nH]c12` (centres undefined), the inhibition result in [3], in data set [4], in data set [6], in data set [12], in data set [15] and in data set [23] was “Active” in each case. Moreover, the outcome in data set [5], in data set [7], in data set [8], in [14], in data set [16] and in data set [17] was Active. The result in data set [18], in [19], in data set [24], in data set [25], in data set [26] and in data set [27] was Active. Further, in data set [28], the result was Active. Moreover, the result in [9], in data set [10], in [11], in data set [13], in data set [21] and in [22] was inactive. In addition, the Activity was 68.3% in data set [1] and “Non-Toxic” in data set [20].

As to `N#Cc1cnn2c(=O)cc(-c3ccc(OCC(=O)NCCOCCNC(=O)COc4cccc5c4C(=O)N(C4CCC(=O)NC4=O)C5=O)cc3)[nH]c12` (centres undefined), the Activity in [1] was found to be 0%.

As for `N#Cc1cnn2c(=O)cc(-c3ccc(OCCNC(=O)CCOCCOCCNc4cccc5c4C(=O)N(C4CCC(=O)NC4=O)C5=O)cc3)[nH]c12` (centres undefined), the Activity in data set [1] turned out to be 0%.

In the case of `N#Cc1cnn2c(=O)cc(-c3ccc(OCCNC(=O)CCOCCOc4cccc5c4C(=O)N(C4CCC(=O)NC4=O)C5=O)cc3)[nH]c12` (centres undefined), the Activity in data set [1] was 6.31%.
